Patent US8399482B2, “6-substituted isoquinolines and isoquinolinones” (Sanofi, priority 2008, dated 2013)

What was measured:
[1] = target: T1, human recombinant ROCK II (Homo sapiens, UniProt O75116); experiment: Determination of Rho kinase inhibition (ROCK II, Caliper peptide phosphorylation assay); format: biochemical; conditions: respective form (salt or free base) as obtained in the examples, 60 min at 32° C.
T1 construct: recombinant human ROCK-II residues 11-552; His6 (N); purchased Millipore GmbH, Schwalbach, Germany
T1 sequence (O75116 11-552): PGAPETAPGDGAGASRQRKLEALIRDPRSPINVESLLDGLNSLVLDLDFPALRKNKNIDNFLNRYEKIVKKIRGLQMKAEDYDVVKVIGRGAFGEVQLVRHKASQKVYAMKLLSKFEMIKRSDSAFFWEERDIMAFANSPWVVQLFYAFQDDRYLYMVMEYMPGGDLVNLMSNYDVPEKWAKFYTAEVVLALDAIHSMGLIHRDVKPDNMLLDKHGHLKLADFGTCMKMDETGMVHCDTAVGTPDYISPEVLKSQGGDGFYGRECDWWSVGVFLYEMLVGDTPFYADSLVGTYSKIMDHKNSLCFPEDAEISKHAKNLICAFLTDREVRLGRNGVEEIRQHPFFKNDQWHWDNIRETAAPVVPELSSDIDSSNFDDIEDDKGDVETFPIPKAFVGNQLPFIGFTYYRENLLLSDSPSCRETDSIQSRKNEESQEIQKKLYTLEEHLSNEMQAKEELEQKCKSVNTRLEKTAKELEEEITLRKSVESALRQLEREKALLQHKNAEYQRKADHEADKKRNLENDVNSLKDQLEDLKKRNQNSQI
How it was run: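 Enzyme: active N-terminal His6-tagged recombinant human ROCK-II, residues 11-552. Substrate: a fluorescein-labelled peptide, with ATP. IC50 values were determined.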

[2] = target: T2, recombinant human PKA (Homo sapiens, UniProt P17612); experiment: Determination of Protein Kinase A inhibition (selectivity); format: biochemical; conditions: from IC50 values
T2 construct: recombinant human PKA (residues 1-351, N-terminal His-tag); His-tag (N); purchased Invitrogen, Karlsruhe, Germany
How it was run: (§1)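 Full-length His-tagged PKG1-beta and His-tagged PKA (residues 1-351) assayed in Tris-HCl pH 7.4 with fluorescein-labelled peptide and ATP (diluted to 3 μM and 120 μM before mixing), 60 min at 32° C. EDTA-stopped; substrate phosphorylation detected by Caliper mobility-shift separation, giving IC50 values.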

[3] = target: T3, recombinant human PKG1-beta (Homo sapiens, UniProt Q13976); experiment: Determination of Protein Kinase G inhibition (selectivity); format: biochemical; conditions: from IC50 values
T3 construct: PKG1-beta (full-length, with N-terminal His-tag); His-tag (N); purchased Millipore GmbH, Schwalbach, Germany
T3 sequence (Q13976 1-686 isoform Q13976-2): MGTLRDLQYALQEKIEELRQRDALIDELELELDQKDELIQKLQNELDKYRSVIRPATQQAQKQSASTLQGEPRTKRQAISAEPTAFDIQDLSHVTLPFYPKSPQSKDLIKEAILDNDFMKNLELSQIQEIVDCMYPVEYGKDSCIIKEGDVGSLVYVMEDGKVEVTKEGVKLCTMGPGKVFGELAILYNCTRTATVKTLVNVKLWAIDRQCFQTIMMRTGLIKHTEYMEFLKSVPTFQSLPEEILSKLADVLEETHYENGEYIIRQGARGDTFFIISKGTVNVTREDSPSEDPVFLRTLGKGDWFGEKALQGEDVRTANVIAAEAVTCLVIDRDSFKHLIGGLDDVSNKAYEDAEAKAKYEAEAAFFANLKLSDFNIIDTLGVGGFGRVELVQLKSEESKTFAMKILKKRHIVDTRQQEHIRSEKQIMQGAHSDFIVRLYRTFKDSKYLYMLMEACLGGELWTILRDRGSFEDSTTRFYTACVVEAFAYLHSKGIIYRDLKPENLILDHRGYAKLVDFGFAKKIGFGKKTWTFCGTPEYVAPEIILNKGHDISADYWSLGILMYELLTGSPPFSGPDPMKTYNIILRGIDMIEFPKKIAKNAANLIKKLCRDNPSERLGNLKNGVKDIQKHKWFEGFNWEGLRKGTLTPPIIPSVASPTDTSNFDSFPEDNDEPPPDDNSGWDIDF
How it was run: as §1

[4] = system: Protein Kinase G; conditions: Rho kinase inhibitor, background statement; cited from earlier work

## NC(C1CC1)[C@]1(CCCC(F)(F)F)CC[C@H](Oc2cc3cc[nH]c(=O)c3cc2Cl)CC1 (stereo partly drawn) [Example 73, cis-6-[4-(Amino-cyclopropyl-methyl)-4-(4,4,4-trifluoro-butyl)-cyclohexyloxy]-7-chloro-2H-isoquinolin-1-one]
[1]
  IC50: ≤ 10 nM
[2]
  Selectivity against PKA: >1000 fold
[3]
  Selectivity against PKG: >300 fold

## CCC(N)[C@]1(C2CC2)CC[C@H](Oc2cc3cc[nH]c(=O)c3cc2Cl)CC1 (stereo partly drawn) [Example 74, cis-6-[4-(1-Amino-propyl)-4-cyclopropyl-cyclohexyloxy]-7-chloro-2H-isoquinolin-1-one]
[1]
  IC50: ≤ 10 nM
[2]
  Selectivity against PKA: >1000 fold
[3]
  Selectivity against PKG: >1000 fold

## NC(C1CC1)[C@]1(C2CC2)CC[C@H](Oc2cc3cc[nH]c(=O)c3cc2Cl)CC1 (stereo partly drawn) [Example 75, cis-6-[4-(Amino-cyclopropyl-methyl)-4-cyclopropyl-cyclohexyloxy]-7-chloro-2H-isoquinolin-1-one]
[1]
  IC50: ≤ 10 nM
[2]
  Selectivity against PKA: >1000 fold
[3]
  Selectivity against PKG: >1000 fold

## CCC(N)[C@]1(C2CCSCC2)CC[C@H](Oc2cc3cc[nH]c(=O)c3cc2Cl)CC1 (stereo partly drawn) [Example 76, cis-6-[4-(1-Amino-propyl)-4-(tetrahydro-thiopyran-4-yl)-cyclohexyloxy]-7-chloro-2H-isoquinolin-1-one]
[1]
  IC50: ≤ 10 nM
[2]
  Selectivity against PKA: >1000 fold
[3]
  Selectivity against PKG: >1000 fold

## CCC[C@]1(C(C)N)CC[C@@H](Oc2cc3cc[nH]c(=O)c3cc2Cl)CC1 (stereo partly drawn) [Example 77, cis-6-[4-(1-Amino-ethyl)-4-propyl-cyclohexyloxy]-7-chloro-2H-isoquinolin-1-one]
[1]
  IC50: ≤ 10 nM
[2]
  Selectivity against PKA: >1000 fold
[3]
  Selectivity against PKG: >300 fold

## CC[C@]1(C(C)N)CC[C@@H](Oc2cc3cc[nH]c(=O)c3cc2F)CC1 (stereo partly drawn) [Example 78, cis-6-[4-(1-Amino-ethyl)-4-ethyl-cyclohexyloxy]-7-fluoro-2H-isoquinolin-1-one]
[1]
  IC50: 10 to 100 nM
[2]
  Selectivity against PKA: >300 fold
[3]
  Selectivity against PKG: >100 fold

## CCC(N)[C@]1(C(C)C)CC[C@H](Oc2cc3c(F)c[nH]c(=O)c3cc2Cl)CC1 (stereo partly drawn) [Example 90, cis-6-[4-(1-Amino-propyl)-4-isopropyl-cyclohexyloxy]-7-chloro-4-fluoro-2H-isoquinolin-1-one]
[1]
  IC50: 10 to 100 nM
[2]
  Selectivity against PKA: >300 fold
[3]
  Selectivity against PKG: >100 fold

## CC[C@]1(C(N)CF)CC[C@@H](Oc2cc3cc[nH]c(=O)c3cc2Cl)CC1 (stereo partly drawn) [Example 95, cis-6-[4-(1-Amino-2-fluoro-ethyl)-4-ethyl-cyclohexyloxy]-7-chloro-2H-isoquinolin-1-one]
[1]
  IC50: ≤ 10 nM
[2]
  Selectivity against PKA: >1000 fold
[3]
  Selectivity against PKG: >300 fold

## CC[C@]1(C(N)CF)CC[C@H](Oc2cc3cc[nH]c(=O)c3cc2Cl)CC1 (stereo partly drawn) [Example 96, trans-6-[4-(1-Amino-2-fluoro-ethyl)-4-ethyl-cyclohexyloxy]-7-chloro-2H-isoquinolin-1-one]
[1]
  IC50: 10 to 100 nM
[2]
  Selectivity against PKA: >300 fold
[3]
  Selectivity against PKG: >100 fold

## CCC(N)[C@]1(C2CCS(=O)(=O)CC2)CC[C@H](Oc2cc3cc[nH]c(=O)c3cc2Cl)CC1 (stereo partly drawn) [Example 99, cis-6-[4-(1-amino-propyl)-4-(1,1-dioxo-tetrahydrothiopyran-4-yl)-cyclohexyloxy]-7-chloro-2H-isoquinolin-1-one]
[1]
  IC50: ≤ 10 nM
[2]
  Selectivity against PKA: >1000 fold
[3]
  Selectivity against PKG: >300 fold

## C[C@@H](N)[C@H]1CC[C@H](C(=O)Nc2ccncc2)CC1 [Example Y-27632]
[4]
  selectivity against Protein Kinase G: 20 fold
